# Source: patent publication US20150104868A1, “Methods of Maintaining and Improving Biological Cell Function and Activity” (GARGILL INCORPORATED, priority 2012, published 2015)
# Legend:
# [1] = in vivo, po; cited from earlier work
# 7B2, PC1/3, PC2 = experiment: RT-PCR gene expression of insulin production related genes in 1.1E7 cells; format: cell-based, human; conditions: 1.1E7 cells, 10, 30, 45 mM glucose, 24 hours or 7 days, 5 mM ERT
# Procedure: Cell culture: Human 1.1E7 beta cells were cultured in RPMI 1640 medium containing 10% fetal calf serum, 2 mM L-Glutamine and 1% penicillin/streptomycin. Cells were maintained at 37° C. in a 5% CO2 atmosphere.
# Gene expression analysis: RNA was isolated from Qiazol suspended cells according to the manufacturer's protocol and quantified spectrophotometrically. Reverse transcription reaction was performed using 500 ng of RNA, which was reverse-transcribed into cDNA using iScript cDNA synthesis kit. Next, real time PCR was performed with a BioRad MyiQ iCycler Single Color RT-PCR detection system using Sensimix™Plus SYBR and Fluorescein, 5 μl diluted (10×) cDNA, and 0.3 μM primers in a total volume of 25 μl. PCR was conducted as follows: denaturation at 95° C. for 10 minutes, followed by 40 cycles of 95° C. for 15 seconds and 60° C. for 45 seconds. After PCR a melt curve (60-95° C.) was produced for product identification and purity. Actin was included as internal control. Data were analyzed using the MyIQ software system (Bio-Rad Laboratories BV, Veenendaal, the Netherlands) and were expressed as relative gene expression (fold change) using the 2^ΔΔCt method.
# PC1/3 and PC2 are proprotein or prohormone covertases. […] 7B2 is a small neuroendocrine protein that is required for the production of active prohormone convertase 2 (PC2)
structure (smiles),measurement,setting,value
"OC[C@@H](O)[C@@H](O)CO [ERT, meso-1,2,3,4-tetrahydroxybutane]",excretion,[1],excreted unchanged in the urine
same,metabolism,[1],not metabolized
same,"gene expression of 7B2, PC1/3 and PC2","7B2, PC1/3, PC2",improved the expression of genes involved in the conversion of (pre)proinsulin to insulin
